{"source": "patent US20120165223A1", "about": "(priority 2006, published 2012)", "key": {"aerobic bacteria": {"system": "aerobic bacteria", "test": "Composition of flora in feces of HFA mice: number of aerobic bacteria", "assay_type": "in vivo", "settings": "7th, 10th and 13th day from the medication, 500 μg/Ml in drinking water", "excerpt": "(§1) For the one week, the feces were picked asceptially with the interval of two to three days. The feces collected of colistin sulfate administeration, 2nd, 4th, 7th, 10th, 13th and 17th days are put in an encapsulated tube and moved to an anaerobic chamber immediately and is put in the PRAS (Prereduced and anaerobically sterilized) TGY medium with the ten times dilution of the weight of feces. The total number of anaerobic bacteria, the number of Bacteroides fragilis and Bifidobacterium spp. of the anaerobic bacteria, the number of aerobic bacteria, and the number of Esherichia coli and Enterococcus spp. of the aerobic bacteria are measured. […] (FIG. 7)"}, "glucuronidase": {"system": "glucuronidase", "test": "Fecal enzyme activity of flora of HFA mice: glucuronidase", "assay_type": "in vivo, human intestinal normal bacterial flora", "experimental": "(§2) For the one week, the feces were picked free from germs with the interval of two to three days. The feces collected at the day of colistin sulfate administration, 2nd, 4th, 7th, 10th, 13th, 17th and 20th days and at 3rd and 5th day after the stop of medication are put in an encapsulated tube and moved to an anaerobic chamber immediately and the activity of glucuomidase, glucosidase, nitrate reductase and azoreductase produced by the human intestinal normal bacterial flora is measured. As a result glucuronidase is decreased throughout the period of administration and the withdrawal period in comparison with control groups and is not recovered even at the 5th day since the medication is stopped. Glucosidase is increased during the medication period in comparison with the control groups. Nitrate reductase is increased in comparison with the control group at the start day of administration and the 2nd day of the medication but is recovered. Azoreductase is increased in comparison with the control group until the 7th day of medication and then decreased."}, "azoreductase": {"system": "azoreductase", "test": "Fecal enzyme activity of flora of HFA mice: azoreductase", "assay_type": "in vivo, human intestinal normal bacterial flora", "experimental": "as §2"}, "anaerobic bacteria": {"system": "anaerobic bacteria", "test": "Composition of flora in feces of HFA mice: total number of anaerobic bacteria", "assay_type": "in vivo", "settings": "17th day, 500 μg/Ml in drinking water", "excerpt": "as §1"}, "nitrate reductase": {"system": "nitrate reductase", "test": "Fecal enzyme activity of flora of HFA mice: nitrate reductase", "assay_type": "in vivo, human intestinal normal bacterial flora", "experimental": "as §2"}, "Enterococcus spp.": {"system": "Enterococcus spp.", "test": "Composition of flora in feces of HFA mice: Enterococcus spp.", "assay_type": "in vivo", "settings": "4th and 27th day from the medication, 500 μg/Ml in drinking water"}, "[1]": {"settings": "5th day since the medication is stopped"}}}
{"substance": "colistin sulfate", "values": [{"measurement": "Number of aerobic bacteria in feces", "setting": "aerobic bacteria", "result": "decreased"}, {"measurement": "Glucuronidase activity, recovery", "setting": "glucuronidase; [1]", "result": "not recovered"}, {"measurement": "Glucuronidase activity in comparison with control groups", "setting": "glucuronidase; throughout the period of administration and the withdrawal period", "result": "decreased"}, {"measurement": "Azoreductase activity, recovery", "setting": "azoreductase; [1]", "result": "not even recovered"}, {"measurement": "Azoreductase activity in comparison with the control group", "setting": "azoreductase; after the 7th day of medication", "result": "decreased"}, {"measurement": "Azoreductase activity in comparison with the control group", "setting": "azoreductase; until the 7th day of medication", "result": "increased"}, {"measurement": "Total number of anaerobic bacteria in feces in comparison with HFA mice", "setting": "anaerobic bacteria", "result": "increased by about twice"}, {"measurement": "Nitrate reductase activity, recovery", "setting": "nitrate reductase; after the 2nd day of the medication", "result": "recovered"}, {"measurement": "Nitrate reductase activity in comparison with the control group", "setting": "nitrate reductase; start day of administration and 2nd day of the medication", "result": "increased"}, {"measurement": "Enterococcus spp. in feces", "setting": "Enterococcus spp.", "result": "decreased in similar way to the control group"}]}
